In PMC6403271, “Characterization, mechanism of action and optimization of activity of a novel peptide-peptoid hybrid against bacterial pathogens involved in canine skin infections” (Scientific Reports, 2019):
Like-named read-outs stand apart in the source and are kept apart here. Square brackets hold non-standard residues; d marks the D form. Peptide text beside a SMILES is read from it. N(1-naphthylmethyl)Gly = O=C(O)CNCc1cccc2ccccc12; 1Nal = N[C@@H](Cc1cccc2ccccc12)C(=O)O; 2Nal = N[C@@H](Cc1ccc2ccccc2c1)C(=O)O; d1Nal = N[C@H](Cc1cccc2ccccc12)C(=O)O; d2Nal = N[C@H](Cc1ccc2ccccc2c1)C(=O)O; Nle = CCCC[C@H](N)C(=O)O; Nphe = O=C(O)CNCc1ccccc1; NBuGly = CCCCNCC(=O)O

What was measured:
P. aeruginosa (26314) = assay type: cell-based, Pseudomonas aeruginosa
Experimental: Activity of B1 was tested on […]. aeruginosa isolates and […]. pseudintermedius isolates (including 7 MRSP) that had been isolated in the diagnostic laboratory Sund Vet Diagnostik (University of Copenhagen) from various infections in dogs between 2009 and 2011. Representative […], and P. aeruginosa (26314) were used for testing the first set of B1 analogues. For antibacterial spectrum the following strains were used: Corynebacterium auriscanis, 31551, (54 C6, dog, ear, 2013); Enterococcus faecalis, 27404, (17 C7, dog, wound, 2011); Enterococcus faecium, 30951, (24 C1, dog, ear, 2013); Streptococcus canis, 26740-1, (14 H1, dog, ear, 2010); Staphylococcus aureus, 27266, (16 G9, dog, skin, 2010); Staphylococcus aureus, 27266, (16 G9, dog, skin, 2010); Staphylococcus pseudintermedius 22963, (3 B9, dog, 2007). Acinetobacter baumannii, 27065, (16 D1, dog, wound, 2010); E. coli, 30235, 23 A6, dog, wound, 2012; Klebsiella pneumoniae, 26233, (11 H5, dog, wound, 2010); Pasteurella canis, 31096, (24 C8, dog, skin, 2013); Proteus mirabilis, 25178, (9 A4, dog, ear, 2009); Pseudomonas aeruginosa 26314, 12 C5, dog, urine, 2010). MIC determination was performed by broth microdilution according to the Clinical and Laboratory Standard Institute (CLSI, […]-A3, 2008)[62]. In brief, each bacterial strain was diluted to concentration of 5 × 10^5 CFU/mL in Mueller Hinton broth II (MHB II) media (Oxoid) and added to a two-fold serial dilution of peptides and peptide-peptoid hybrids concentrations ranging from 1 to 64 μg/ml in 96-well plates (Nunc Internationals, Rochester, NY). The MICs were determined as a lowest concentration showing no visible growth after incubation for 18 hours at 37 °C. Experiments were performed in triplicates on two different days.

MSSA (ATCC 29213) = assay type: cell-based, Staphylococcus aureus
Experimental: (§1) Activity of B1 was tested on 50P. aeruginosa isolates and 57S. pseudintermedius isolates (including 7 MRSP) that had been isolated in the diagnostic laboratory Sund Vet Diagnostik (University of Copenhagen) from various infections in dogs between 2009 and 2011. Representative MRSP (C22963), MSSA, and P. aeruginosa (26314) were used for testing the first set of B1 analogues.
(§2) MIC determination was performed by broth microdilution according to the Clinical and Laboratory Standard Institute (CLSI, M31-A3, 2008)[62]. In brief, each bacterial strain was diluted to concentration of 5 × 10^5 CFU/mL in Mueller Hinton broth II (MHB II) media (Oxoid) and added to a two-fold serial dilution of peptides and peptide-peptoid hybrids concentrations ranging from 1 to 64 µg/ml in 96-well plates (Nunc Internationals, Rochester, NY). The MICs were determined as a lowest concentration showing no visible growth after incubation for 18 hours at 37 °C. Experiments were performed in triplicates on two different days.

MRSP C22963 = assay type: cell-based, Staphylococcus pseudintermedius
Experimental: as §1, §2

[1] = assay type: cell-based, human; details: human
Experimental: (§3) Briefly, two-fold serial dilutions (2.35 to 150 μM) of compounds in phosphate buffer saline (PBS) were mixed with equal volume of 0.5% v/v suspension of fresh human red blood cells (RBC) in the same buffer. After 1 h incubation at 37 °C, plates were centrifuged and aliquots of the supernatants were transferred to clear 96-well plates. Absorbance at 414 nm was measured and normalized using a negative (PBS, 0%) and a positive (melittin, 100%) control. The EC10 and EC50 are concentrations at which 10% and 50% of RBC were lysed, respectively, as interpolated graphically by the y-axis intersection of the plotted data.

human red blood cells = assay type: cell-based; details: for EC50: red cells of human, 1 h
Experimental: as §3

Compound	Minimum Inhibitory Concentration P. aeruginosa (26314) (P. aeruginosa (26314); 26314, 18 h)	Minimum Inhibitory Concentration MSSA (ATCC 29213) (MSSA (ATCC 29213); ATCC 29213, 18 h)	Minimum Inhibitory Concentration MRSP C22963 (MRSP C22963; 18 h)	hemolysis at 1 h, 150 µM [1]	Haemolysis EC10 (human red blood cells)	EC50 (human red blood cells)	Minimum Inhibitory Concentration P. aeruginosa (26314) (P. aeruginosa (26314); Table 1)	Minimum Inhibitory Concentration MSSA (ATCC 29213) (MSSA (ATCC 29213); Table 1)	Minimum Inhibitory Concentration MRSP C22963 (MRSP C22963; Table 1)	Haemolysis %H 150(µM) (human red blood cells; 150 µM)
CC(C)C[C@@H](NC(=O)[C@@H](Cc1cccc2ccccc12)NC(=O)[C@@H](Cc1ccccc1)NC(=O)[C@H](N)Cc1cccc2ccccc12)C(=O)N[C@@H](CCCCN)C(=O)N[C@@H](CCCCN)C(=O)N[C@@H](CCCCN)C(N)=O [Compound 21, (1-Nal)ala-phe-(1-Nal)ala-leu-Lys-Lys-Lys] (H-[d1Nal][dF][d1Nal][dL]KKK-NH2; N-terminus assumed)	32 µg/mL	32 µg/mL	16 µg/mL	< 8%						
CC(C)C[C@@H](NC(=O)[C@H](CCCCN)NC(=O)[C@@H](Cc1ccc2ccccc2c1)NC(=O)[C@@H](Cc1ccccc1)NC(=O)[C@H](N)Cc1ccc2ccccc2c1)C(=O)N[C@@H](CCCCN)C(=O)N[C@@H](CCCCN)C(N)=O [Compound 18, (2-Nal)ala-phe-(2-Nal)ala-Lys-leu-Lys-Lys] (H-[d2Nal][dF][d2Nal]K[dL]KK-NH2; N-terminus assumed)	>64 µg/mL	32 to 64 µg/mL	16 µg/mL	< 8%						
CC(C)C[C@H](NC(=O)[C@H](Cc1cccc2ccccc12)NC(=O)[C@H](Cc1ccccc1)NC(=O)[C@@H](N)Cc1cccc2ccccc12)C(=O)N[C@@H](CCCCN)C(=O)N[C@@H](CCCCN)C(=O)N[C@@H](CCCCN)C(N)=O [Compound 12, (1-Nal)Ala-Phe-(1-Nal)Ala-Leu-Lys-Lys-Lys] (H-[1Nal]F[1Nal]LKKK-NH2; N-terminus assumed)	>64 µg/mL	32 µg/mL	16 µg/mL	< 8%						
CC(C)C[C@H](NC(=O)[C@H](CCCCN)NC(=O)[C@H](Cc1cccc2ccccc12)NC(=O)[C@H](Cc1ccccc1)NC(=O)[C@@H](N)Cc1cccc2ccccc12)C(=O)N[C@@H](CCCCN)C(=O)N[C@@H](CCCCN)C(N)=O [Compound 10, (1-Nal)Ala-Phe-(1-Nal)Ala-Lys-Leu-Lys-Lys] (H-[1Nal]F[1Nal]KLKK-NH2; N-terminus assumed)	64 µg/mL	16 to 32 µg/mL	8 to 16 µg/mL	< 8%						
CC(C)C[C@@H](NC(=O)[C@H](CCCCN)NC(=O)[C@@H](Cc1cccc2ccccc12)NC(=O)[C@@H](Cc1ccccc1)NC(=O)[C@H](N)Cc1cccc2ccccc12)C(=O)N[C@@H](CCCCN)C(=O)N[C@@H](CCCCN)C(N)=O [Compound 20, (1-Nal)ala-phe-(1-Nal)ala-Lys-leu-Lys-Lys] (H-[d1Nal][dF][d1Nal]K[dL]KK-NH2; N-terminus assumed)	>64 µg/mL	32 to 64 µg/mL	16 µg/mL	< 8%						
CCCC[C@H](NC(=O)[C@H](CCCCN)NC(=O)[C@H](CCCCN)NC(=O)[C@@H](N)CCCCN)C(=O)N[C@@H](Cc1ccc2ccccc2c1)C(=O)N[C@@H](Cc1ccc(O)cc1)C(=O)N[C@@H](Cc1ccc2ccccc2c1)C(N)=O [Compound 27, Lys-Lys-Lys-Nle-(2-Nal)Ala-Tyr-(2-Nal)Ala] (H-KKK[Nle][2Nal]Y[2Nal]-NH2; N-terminus assumed)	64 µg/mL		2 to 4 µg/mL	54%	3 µM	56 µM				
CCCCN(CC(=O)N(CC(=O)N(CC(=O)N(CC(N)=O)Cc1cccc2ccccc12)Cc1ccccc1)Cc1cccc2ccccc12)C(=O)[C@H](CCCCN)NC(=O)[C@H](CCCCN)NC(=O)[C@@H](N)CCCCN [Compound 3, Lys-Lys-Lys-(NBu)Gly-(N1-Nal)Gly-(NPhe)Gly-(N1-Nal)Gly] (H-KKK[NBuGly][N(1-naphthylmethyl)Gly][Nphe][N(1-naphthylmethyl)Gly]-NH2; N-terminus assumed)	32 µg/mL	16 µg/mL	4 µg/mL	< 8%						
CC(C)C[C@@H](NC(=O)[C@@H](Cc1ccc2ccccc2c1)NC(=O)[C@@H](Cc1ccccc1)NC(=O)[C@H](N)Cc1ccc2ccccc2c1)C(=O)N[C@@H](CCCCN)C(=O)N[C@@H](CCCCN)C(=O)N[C@@H](CCCCN)C(N)=O [Compound 19, (2-Nal)ala-phe-(2-Nal)ala-leu-Lys-Lys-Lys] (H-[d2Nal][dF][d2Nal][dL]KKK-NH2; N-terminus assumed)	>64 µg/mL	32 µg/mL	16 µg/mL	< 8%						
CCCCN(CC(=O)N[C@@H](CCCCN)C(=O)N[C@@H](CCCCN)C(N)=O)C(=O)[C@H](CCCCN)NC(=O)CN(Cc1cccc2ccccc12)C(=O)CN(Cc1ccccc1)C(=O)CNCc1cccc2ccccc12 [Compound 5, (N1-Nal)Gly-(NPhe)Gly-(N1-Nal)Gly-Lys-(NBu)Gly-Lys-Lys] (H-[N(1-naphthylmethyl)Gly][Nphe][N(1-naphthylmethyl)Gly]K[NBuGly]KK-NH2; N-terminus assumed)	32 µg/mL	16 µg/mL	8 µg/mL	< 8%						
CC(C)C[C@@H](NC(=O)[C@H](CCCCN)NC(=O)[C@H](CCCCN)NC(=O)[C@@H](N)CCCCN)C(=O)N[C@H](Cc1cccc2ccccc12)C(=O)N[C@H](Cc1ccc(O)cc1)C(=O)N[C@H](Cc1cccc2ccccc12)C(N)=O [Compound 25, Lys-Lys-Lys-leu-(1-Nal)ala-tyr-(1-Nal)ala] (H-KKK[dL][d1Nal][dY][d1Nal]-NH2; N-terminus assumed)			2 to 4 µg/mL	53%	38 µM	138 µM	8 µg/mL			
CC(C)C[C@@H](NC(=O)[C@H](CCCCN)NC(=O)[C@H](CCCCN)NC(=O)[C@@H](N)CCCCN)C(=O)N[C@H](Cc1ccc2ccccc2c1)C(=O)N[C@H](Cc1ccc(O)cc1)C(=O)N[C@H](Cc1ccc2ccccc2c1)C(N)=O [Compound 28, Lys-Lys-Lys-leu-(2-Nal)ala-tyr-(2-Nal)ala] (H-KKK[dL][d2Nal][dY][d2Nal]-NH2; N-terminus assumed)	32 µg/mL		2 to 4 µg/mL	64%	6 µM	50 µM				
Lys-Lys-Lys-Leu-(2-Nal)Ala-Tyr-(2-Nal)Ala [Compound 22]					117 µM		>64 µg/mL	>64 µg/mL	16 µg/mL	14%
